Assay: Solubility of Compound I in aqueous media
Type: physicochemical
Details: pH independent

Solubility in aqueous media: low solubility
SMILES: OC(CNc1nc(-c2cc(-c3ccon3)n(Cc3ccccc3F)n2)ncc1F)(C(F)(F)F)C(F)(F)F [Compound I, 1,1,1,3,3,3-hexafluoro-2-(((5-fluoro-2-(1-(2-fluorobenzyl)-5-(isoxazol-3-yl)-1H-pyrazol-3-yl)pyrimidin-4-yl)amino)methyl)propan-2-ol]

From patent US20250255821A1, “SOLID DISPERSIONS COMPRISING A SGC STIMULATOR” (Cyclerion Therapeutics, Inc., priority 2015, published 2025)
